Data on four molecules can be found in publication PMC4148164 (Journal of Medicinal Chemistry, 2014).

The conditions of series [1]: in biological milieu; estimated; cited from earlier work.
The subject of series [2] is precontracted bovine coronary artery rings. As to the kind of experiment: Vasorelaxation of U46619-precontracted bovine coronary artery rings. The series is classed as cell-based. The note with it: for fold more potent than 14,15-EET as vasorelaxant (ED50): ratio of ED50 versus 14,15-EET.

Consider `CCCCCC1OC1C/C=C\C/C=C\C/C=C\CCCC(=O)O` (stereo not shown) [14,15-EET, 14,15-epoxyeicosa-5(Z),8(Z),11(Z)-trienoic acid], for which the half-life result in series [1] was “no more than seconds to minutes”.

On to `CCCCCNC(=O)NCCCC/C=C\CCCCCNS(=O)(=O)c1ccccc1` [Compd 9], for which the “improvement in the EC50 by a factor (versus parent free acid)” value in series [2] (vasorelaxation EC50 compared with parent free acid) is given as approximately 2.

On to `CCCCCNC(=O)NCCCC/C=C\CCCCCCc1nnn[nH]1` [Compd 19, 1-(12-(1H-Tetrazol-5-yl)dodec-5(Z)-en-1-yl)-3-pentylurea], for which the “fold more potent than 14,15-EET as vasorelaxant (ED50)” value in series [2] stood at 12 fold.

As for “N1-Butyl-N2-(12-(2-oxido-3H-1,2,3,5-oxathiadiazol-4-yl)dodec-5(Z)-en-1-yl)oxalamide [Compd 25]”, in series [2], the “fold more potent than 14,15-EET as vasorelaxant (ED50)” value stood at 6 fold.
